# Measured values reported in ChEMBL document CHEMBL3044783, “Effects of pyrrolizidine alkaloids on the performance of plant-parasitic and free-living nematodes” (Pest Manag Sci, 2009).
# Calls of active or inactive are those of the source. No cut-off for these calls is given here.
# Columns and labels:
# Heterodera schachtii [1] = test: Nematicidal activity against juvenile stage of Heterodera schachtii assessed as inhibition of mobility incubated for 168 hr followed by compound wash out measured after 24 hr; assay type: functional
# Meloidogyne incognita [2] = test: Nematicidal activity against juvenile stage of Meloidogyne incognita (root-knot nematode) assessed as inhibition of mobility incubated for 168 hr followed by compound wash out measured after 24 hr; assay type: functional
# Meloidogyne incognita [3] = test: Nematicidal activity against juvenile stage of Meloidogyne incognita (root-knot nematode) assessed as inhibition of mobility after 168 hr; assay type: functional
# Heterodera schachtii [4] = test: Nematicidal activity against juvenile stage of Heterodera schachtii assessed as inhibition of mobility after 168 hr; assay type: functional
# Meloidogyne incognita [5] = test: Nematicidal activity against juvenile stage of Meloidogyne incognita (root-knot nematode) assessed as inhibition of mobility after 20 hr; assay type: functional
# Heterodera schachtii [6] = test: Nematicidal activity against juvenile stage of Heterodera schachtii assessed as inhibition of mobility after 20 hr; assay type: functional
# Pratylenchus penetrans [7] = test: Nematicidal activity against juvenile stage of Pratylenchus penetrans assessed as inhibition of mobility incubated for 168 hr followed by compound wash out measured after 24 hr; assay type: functional
# Rhabditis sp. [8] = test: Nematicidal activity against juvenile stage of Rhabditis sp. assessed as reduction of fecundity at 0.1 mg/mL after 72 hr by stereomicroscopic analysis relative to untreated control; assay type: functional, organism-based
# Rhabditis sp. [9] = test: Nematicidal activity against juvenile stage of Rhabditis sp. assessed as reduction of nematode development at 0.01 mg/mL after 72 hr by stereomicroscopic analysis (reference value: 62%); assay type: functional; set-up: scale not given: the % may be the effect or the level left
# Rhabditis sp. [10] = test: Nematicidal activity against juvenile stage of Rhabditis sp. assessed as reduction of nematode development at 0.1 mg/mL after 72 hr by stereomicroscopic analysis (reference value: 62%); assay type: functional; set-up: scale not given: the % may be the effect or the level left
# Rhabditis sp. [11] = test: Nematicidal activity against juvenile stage of Rhabditis sp. assessed as reduction of nematode development at 1 mg/mL after 72 hr by stereomicroscopic analysis (reference value: 62%); assay type: functional; set-up: scale not given: the % may be the effect or the level left
# Rhabditis sp. [12] = test: Nematicidal activity against juvenile stage of Rhabditis sp. assessed as inhibition of mobility after 168 hr; assay type: functional
# Pratylenchus penetrans [13] = test: Nematicidal activity against juvenile stage of Pratylenchus penetrans assessed as inhibition of mobility after 168 hr; assay type: functional
# Rhabditis sp. [14] = test: Nematicidal activity against juvenile stage of Rhabditis sp. assessed as inhibition of mobility after 20 hr; assay type: functional, organism-based
# Pratylenchus penetrans [15] = test: Nematicidal activity against juvenile stage of Pratylenchus penetrans assessed as inhibition of mobility after 20 hr; assay type: functional
# Rhabditis sp. [16] = test: Repellent activity against juvenile stage of Rhabditis sp. at 0.1 mg/mL after 20 hr by stereomicroscopic analysis (reference value: 48%); assay type: functional
# Rhabditis sp. [17] = test: Repellent activity against juvenile stage of Rhabditis sp. at 1 mg/mL after 20 hr by stereomicroscopic analysis (reference value: 48%); assay type: functional
# Meloidogyne incognita [18] = test: Ovicidal activity against Meloidogyne incognita (root-knot nematode) assessed as egg hatching at 1 mg/mL after 336 hr (reference value: 54%); assay type: functional
# Meloidogyne incognita [19] = test: Ovicidal activity against Meloidogyne incognita (root-knot nematode) assessed as egg hatching at 1 mg/mL after 24 hr (reference value: 3%); assay type: functional
# Meloidogyne incognita [20] = test: Repellent activity against juvenile stage of Meloidogyne incognita (root-knot nematode) at 0.1 mg/mL after 40 hr by stereomicroscopic analysis (reference value: 51%); assay type: functional
# Meloidogyne incognita [21] = test: Repellent activity against juvenile stage of Meloidogyne incognita (root-knot nematode) at 1 mg/mL after 40 hr by stereomicroscopic analysis (reference value: 51%); assay type: functional
# Meloidogyne incognita [22] = test: Repellent activity against juvenile stage of Meloidogyne incognita (root-knot nematode) at 0.1 mg/mL after 20 hr by stereomicroscopic analysis (reference value: 50%); assay type: functional
# Meloidogyne incognita [23] = test: Repellent activity against juvenile stage of Meloidogyne incognita (root-knot nematode) at 1 mg/mL after 20 hr by stereomicroscopic analysis (reference value: 50%); assay type: functional
# Rhabditis sp. [24] = test: Repellent activity against juvenile stage of Rhabditis sp. at 0.1 mg/mL after 40 hr by stereomicroscopic analysis (reference value: 50%); assay type: functional
# Rhabditis sp. [25] = test: Repellent activity against juvenile stage of Rhabditis sp. at 1 mg/mL after 40 hr by stereomicroscopic analysis (reference value: 50%); assay type: functional
# [26] = Stability of the compound assessed as apperance of pyrroles at 5 mg/mL after 24 to 168 hr by thin layer chromatographic analysis under UV light and cold temperature; assay type: physicochemical
# [27] = Stability of the compound assessed as apperance of pyrroles at 5 mg/mL after 24 to 168 hr by thin layer chromatographic analysis under UV light and hot temperature; assay type: physicochemical
# [28] = Stability of the compound assessed as apperance of new pyrrolizidine alkaloids at 5 mg/mL after 24 to 168 hr by thin layer chromatographic analysis under UV light and cold temperature; assay type: physicochemical
# [29] = Stability of the compound assessed as conversion of free base to N-oxide at 5 mg/mL after 24 to 168 hr by thin layer chromatographic analysis under UV light and hot temperature; assay type: physicochemical
# [30] = Stability of the compound assessed as apperance of new pyrrolizidine alkaloids at 5 mg/mL after 24 to 168 hr by thin layer chromatographic analysis under UV light and hot temperature; assay type: physicochemical
# [31] = Stability of the compound assessed as apperance of pyrroles at 5 mg/mL after 166 hr by thin layer chromatographic analysis under hot temperature; assay type: physicochemical
# [32] = Stability of the compound assessed as apperance of pyrroles at 5 mg/mL after 24 hr by thin layer chromatographic analysis under hot temperature; assay type: physicochemical
# [33] = Stability of the compound assessed as apperance of new pyrrolizidine alkaloids at 5 mg/mL after 24 hr by thin layer chromatographic analysis under hot temperature; assay type: physicochemical
# [34] = Stability of the compound assessed as apperance of new pyrrolizidine alkaloids at 5 mg/mL after 24 hr by thin layer chromatographic analysis under cold temperature; assay type: physicochemical
# [35] = Stability of the compound assessed as apperance of new pyrrolizidine alkaloids at 5 mg/mL after 166 hr by thin layer chromatographic analysis under hot temperature; assay type: physicochemical
# [36] = Stability of the compound assessed as apperance of new pyrrolizidine alkaloids at 5 mg/mL after 166 hr by thin layer chromatographic analysis under cold temperature; assay type: physicochemical
# [37] = Stability of the compound assessed as conversion of free base to N-oxide at 5 mg/mL after 24 to 168 hr by thin layer chromatographic analysis under cold temperature; assay type: physicochemical
# [38] = Stability of the compound assessed as conversion of free base to N-oxide at 5 mg/mL after 24 to 168 hr by thin layer chromatographic analysis under hot temperature; assay type: physicochemical
# [39] = Stability of the compound assessed as conversion of free base to N-oxide at 5 mg/mL after 24 to 168 hr by thin layer chromatographic analysis under UV light and cold temperature; assay type: physicochemical
# [40] = tested on: Phasmarhabditis hermaphrodita; test: Nematicidal activity against juvenile stage of Phasmarhabditis hermaphrodita of assessed as inhibition of mobility after 168 hr; assay type: functional
# [41] = tested on: Phasmarhabditis hermaphrodita; test: Nematicidal activity against juvenile stage of Phasmarhabditis hermaphrodita of assessed as inhibition of mobility after 20 hr; assay type: functional, organism-based
compound,measurement,setting,value
C/C=C1/C[C@@H](C)[C@@](C)(O)C(=O)OCC2=CC[N+]3([O-])CC[C@@H](OC1=O)[C@@H]23 (some centres undefined) [SENECIONINE N-OXIDE],MIC50,Heterodera schachtii [1],inactive
same,MIC50,Meloidogyne incognita [2],inactive
same,MIC50,Meloidogyne incognita [3],2900 µg/mL
same,MIC50,Heterodera schachtii [4],3400 µg/mL
same,MIC50,Meloidogyne incognita [5],inactive
same,MIC50,Heterodera schachtii [6],7200 µg/mL
CO[C@H](C)[C@](O)(C(=O)OCC1=CC[N+]2([O-])CC[C@H](O)[C@@H]12)C(C)C (some centres undefined) [HELIOTRINE N-OXIDE],MIC50,Pratylenchus penetrans [7],inactive
same,MIC50,Heterodera schachtii [1],inactive
same,MIC50,Meloidogyne incognita [2],1700 µg/mL
same,Activity,Rhabditis sp. [8],Active
same,Activity,Rhabditis sp. [9],68%
same,Activity,Rhabditis sp. [10],55%
same,Activity,Rhabditis sp. [11],0%
same,MIC50,Rhabditis sp. [12],inactive
same,MIC50,Pratylenchus penetrans [13],inactive
same,MIC50,Meloidogyne incognita [3],900 µg/mL
same,MIC50,Heterodera schachtii [4],77400 µg/mL
same,MIC50,Rhabditis sp. [14],inactive
same,MIC50,Pratylenchus penetrans [15],inactive
same,MIC50,Meloidogyne incognita [5],4800 µg/mL
same,MIC50,Heterodera schachtii [6],inactive
C/C=C(/C)C(=O)O[C@H]1CC[N+]2([O-])CC=C(COC(=O)[C@](O)(C(C)C)[C@@H](C)OC)[C@H]12 (some centres undefined) [LASIOCARPINE N-OXIDE],MIC50,Heterodera schachtii [1],inactive
same,MIC50,Meloidogyne incognita [2],inactive
same,MIC50,Meloidogyne incognita [3],84400 µg/mL
same,MIC50,Heterodera schachtii [4],inactive
same,MIC50,Meloidogyne incognita [5],inactive
same,MIC50,Heterodera schachtii [6],inactive
C[C@H]1C(=O)O[C@@H]2CCN3CC=C(COC(=O)[C@](C)(O)[C@]1(C)O)[C@H]23 [MONOCROTALINE],Repellency,Rhabditis sp. [16],45%
same,Repellency,Rhabditis sp. [17],92%
same,MIC50,Pratylenchus penetrans [7],5800 µg/mL
same,MIC50,Heterodera schachtii [1],1700 µg/mL
same,MIC50,Meloidogyne incognita [2],400 µg/mL
same,Activity,Meloidogyne incognita [18],29%
same,Activity,Meloidogyne incognita [19],2%
same,Repellency,Meloidogyne incognita [20],52%
same,Repellency,Meloidogyne incognita [21],52%
same,Repellency,Meloidogyne incognita [22],51%
same,Repellency,Meloidogyne incognita [23],55%
same,Repellency,Rhabditis sp. [24],49%
same,Repellency,Rhabditis sp. [25],93%
same,Stability,[26],Unstable
same,Stability,[27],Unstable
same,Stability,[28],Unstable
same,Stability,[29],Stable
same,Stability,[30],Unstable
same,Stability,[31],Unstable
same,Stability,[32],Stable
same,Stability,[33],Stable
same,Stability,[34],Stable
same,Stability,[35],Unstable
same,Stability,[36],Unstable
same,Stability,[37],Stable
same,Stability,[38],Stable
same,Stability,[39],Stable
same,MIC50,Rhabditis sp. [12],150 µg/mL
same,MIC50,[40],inactive
same,MIC50,Pratylenchus penetrans [13],1800 µg/mL
same,MIC50,Meloidogyne incognita [3],300 µg/mL
same,MIC50,Heterodera schachtii [4],2000 µg/mL
same,MIC50,[41],inactive
same,MIC50,Rhabditis sp. [14],inactive
same,MIC50,Pratylenchus penetrans [15],25900 µg/mL
same,MIC50,Meloidogyne incognita [5],31500 µg/mL
same,MIC50,Heterodera schachtii [6],inactive
